Tested on: Eschericia coli (E. coli) strain ATCC25922
Test: Standard microdilution assay, MIC against E. coli ATCC25922
Format: cell-based
Conditions: Escherichia coli; E. coli strain ATCC25922, standard microdilution assay; cutoff 16 micrograms/mL; read-out: MIC E. Coli
In short: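 MIC determined by broth microdilution following CLSI protocols, with reference strains run in parallel for quality control. Activity scored +/− at a cutoff of 16 micrograms/mL.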

| MIC | SMILES |
| --- | --- |
| < 16 µg/mL | C=CC[C@@H](CCN[C@@H](C)c1ccc(-n2cc3cc(-c4cc(CCC[C@H](C)N)cc(OC(F)(F)F)c4F)[nH]c3nc2=O)cc1)NC(=N)N [Compound 261] |
| < 16 µg/mL | C[C@H](N)CCCc1cc(Cl)c(F)c(-c2cc3cn(-c4ccc([C@H](C)NCC[C@H](CO)NC(=N)N)cc4)c(=O)nc3[nH]2)c1 [Compound 262] |
| < 16 µg/mL | C[C@H](N)CCCc1cc(OC(F)(F)F)c(F)c(-c2cc3cn(-c4ccc([C@H](C)NCC[C@H](CO)NC(=N)N)cc4)c(=O)nc3[nH]2)c1 [Compound 263] |
| < 16 µg/mL | C[C@H](N)CCCc1cc(Cl)c(F)c(-c2cc3cn(-c4ccc([C@H](C)NCC[C@@H](CO)NC(=N)N)cc4)c(=O)nc3[nH]2)c1 [Compound 264] |
| < 16 µg/mL | C[C@H](N)CCCc1cc(OC(F)(F)F)c(F)c(-c2cc3cn(-c4ccc([C@H](C)NCC[C@@H](CO)NC(=N)N)cc4)c(=O)nc3[nH]2)c1 [Compound 265] |
| < 16 µg/mL | C[C@H](N)CCCc1cc(Cl)c(F)c(-c2cc3cn(-c4ccc([C@H](C)NCC[C@@H](Cc5c[nH]nn5)NC(=N)N)cc4)c(=O)nc3[nH]2)c1 [Compound 266] |
| < 16 µg/mL | C[C@H](N)CCCc1cc(Cl)c(F)c(-c2cc3cn(-c4ccc([C@H](C)NCC[C@H](Cc5c[nH]nn5)NC(=N)N)cc4)c(=O)nc3[nH]2)c1 [Compound 267] |
| < 16 µg/mL | C[C@H](N)CCCc1cc(Cl)c(F)c(-c2cc3cn(-c4ccc([C@H](C)NCCC(CC(O)CO)NC(=N)N)cc4)c(=O)nc3[nH]2)c1 (some centres unmarked) [Compound 270] |
| < 16 µg/mL | C[C@H](N)CCCc1cc(Cl)c(F)c(-c2cc3cn(-c4ccc([C@H](C)NCC[C@@H](CN)NC(=N)N)cc4)c(=O)nc3[nH]2)c1 [Compound 271] |
| < 16 µg/mL | C[C@H](N)CCCc1cc(Cl)c(F)c(-c2cc3cn(-c4ccc([C@H](C)NCC[C@@H](CNCc5nccs5)NC(=N)N)cc4)c(=O)nc3[nH]2)c1 [Compound 272] |
| < 16 µg/mL | C[C@H](N)CCCc1cc(Cl)c(F)c(-c2cc3cn(-c4ccc([C@H](C)NCC[C@H](CCCO)NC(=N)N)cc4)c(=O)nc3[nH]2)c1 [Compound 275] |
| < 16 µg/mL | C[C@H](N)CCCc1cc(OC(F)(F)F)c(F)c(-c2cc3cn(-c4ccc([C@H](C)NCC[C@@H](CN)NC(=N)N)cc4)c(=O)nc3[nH]2)c1 [Compound 278] |
| < 16 µg/mL | C[C@H](N)CCCc1cc(Cl)c(F)c(-c2cc3cn(-c4ccc([C@H](C)NCC[C@@H](Cn5cccn5)NC(=N)N)cc4)c(=O)nc3[nH]2)c1 [Compound 279] |
| < 16 µg/mL | COC(=O)C[C@H](CCN[C@@H](C)c1ccc(-n2cc3cc(-c4cc(CCC[C@H](C)N)cc(Cl)c4F)[nH]c3nc2=O)cc1)NC(=N)N [Compound 280] |
| < 16 µg/mL | C[C@H](N)CCCc1cc(Cl)c(F)c(-c2cc3cn(-c4ccc([C@H](C)NCC[C@@H](CCCN)NC(=N)N)cc4)c(=O)nc3[nH]2)c1 [Compound 281] |
| < 16 µg/mL | C[C@H](N)CCCc1cc(Cl)c(F)c(-c2cc3cn(-c4ccc([C@H](C)NCC[C@H](CCCN)NC(=N)N)cc4)c(=O)nc3[nH]2)c1 [Compound 282] |
| < 16 µg/mL | CSC[C@@H](CCN[C@@H](C)c1ccc(-n2cc3cc(-c4cc(CCC[C@H](C)N)cc(Cl)c4F)[nH]c3nc2=O)cc1)NC(=N)N [Compound 287] |
| < 16 µg/mL | CSC[C@@H](CCN[C@@H](C)c1ccc(-n2cc3cc(-c4cc(CCC[C@H](C)N)cc(OC(F)(F)F)c4F)[nH]c3nc2=O)cc1)NC(=N)N [Compound 288] |
| < 16 µg/mL | C[C@H](N)CCCc1cc(Cl)c(F)c(-c2cc3cn(-c4ccc([C@H](C)NCC[C@H](CS(C)(=O)=O)NC(=N)N)cc4)c(=O)nc3[nH]2)c1 [Compound 289] |
| < 16 µg/mL | C[C@H](N)CCCc1cc(Cl)c(F)c(-c2cc3cn(-c4ccc([C@H](C)N[C@H](CCO)CCNC(=N)N)cc4)c(=O)nc3[nH]2)c1 [Compound 291] |
| < 16 µg/mL | C/C=C/C[C@H](CCN[C@@H](C)c1ccc(-n2cc3cc(-c4cc(CCC[C@H](C)N)cc(OC(F)(F)F)c4F)[nH]c3nc2=O)cc1)NC(=N)N [Compound 292] |
| < 16 µg/mL | C[C@H](N)CCCc1cc(Cl)c(F)c(-c2cc3cn(-c4ccc([C@H](C)NCC[C@H](Cn5ccnn5)NC(=N)N)cc4)c(=O)nc3[nH]2)c1 [Compound 293] |
| < 16 µg/mL | C[C@H](N)CCCc1cc(Cl)c(F)c(-c2cc3cn(-c4ccc([C@H](C)NCC[C@@H](CC#N)NC(=N)N)cc4)c(=O)nc3[nH]2)c1 [Compound 297] |
| < 16 µg/mL | C[C@H](N)CCCc1cc(Cl)c(F)c(-c2cc3cn(-c4ccc([C@H](C)NCC[C@H](Cn5cc(CN)nn5)NC(=N)N)cc4)c(=O)nc3[nH]2)c1 [Compound 301] |
| < 16 µg/mL | C[C@H](N)CCCc1cc(Cl)c(F)c(-c2cc3cn(-c4ccc([C@H](C)N[C@@H](CCO)CCNC(=N)N)cc4)c(=O)nc3[nH]2)c1 [Compound 303] |
| < 16 µg/mL | C[C@H](N)CCCc1cc(Cl)c(F)c(-c2cc3cn(-c4ccc([C@H](C)NCC[C@H](CN)NC(=N)N)cc4)c(=O)nc3[nH]2)c1 [Compound 304] |
| < 16 µg/mL | C[C@H](N)CCCc1cc(OC(F)(F)F)c(F)c(-c2cc3cn(-c4ccc([C@H](C)NCC[C@H](CN)NC(=N)N)cc4)c(=O)nc3[nH]2)c1 [Compound 305] |
| < 16 µg/mL | C[C@H](NCCCNC(=N)N)c1ccc(-n2cc3cc(-c4cc(CCC[C@H](C)NC(=N)N)cc(Cl)c4F)[nH]c3nc2=O)cc1 [Compound 309] |
| < 16 µg/mL | C[C@H](N)CCCc1cc(Cl)c(F)c(-c2cc3cn(-c4ccc([C@H](C)NCC[C@H](CCN)NC(=N)N)cc4)c(=O)nc3[nH]2)c1 [Compound 312] |
| < 16 µg/mL | C[C@H](N)CCCc1cc(Cl)c(F)c(-c2cc3cn(-c4ccc([C@H](C)NCC[C@@H](CCN)NC(=N)N)cc4)c(=O)nc3[nH]2)c1 [Compound 313] |

More lines, now with the values behind:

| SMILES | MIC |
| --- | --- |
| C[C@H](N)CCCc1cc(OC(F)(F)F)c(F)c(-c2cc3cn(-c4ccc([C@H](C)NCC[C@@H](Cc5c[nH]nn5)NC(=N)N)cc4)c(=O)nc3[nH]2)c1 [Compound 268] | < 16 µg/mL |
| C[C@H](N)CCCc1cc(OC(F)(F)F)c(F)c(-c2cc3cn(-c4ccc([C@H](C)NCC[C@H](Cc5c[nH]nn5)NC(=N)N)cc4)c(=O)nc3[nH]2)c1 [Compound 269] | < 16 µg/mL |
| C[C@H](N)CCCc1cc(Cl)c(F)c(-c2cc3cn(-c4ccc(CN[C@@H](CO)CCNC(=N)N)cc4)c(=O)nc3[nH]2)c1 [Compound 273] | < 16 µg/mL |
| C[C@H](N)CCCc1cc(OC(F)(F)F)c(F)c(-c2cc3cn(-c4ccc(CN[C@@H](CO)CCNC(=N)N)cc4)c(=O)nc3[nH]2)c1 [Compound 274] | < 16 µg/mL |
| C[C@H](N)CCCc1cc(OC(F)(F)F)c(F)c(-c2cc3cn(-c4ccc([C@H](C)NCC[C@H](CCCO)NC(=N)N)cc4)c(=O)nc3[nH]2)c1 [Compound 276] | < 16 µg/mL |
| C[C@H](N)CCCc1cc(OC(F)(F)F)c(F)c(-c2cc3cn(-c4ccc([C@H](C)NCC[C@@H](CNCc5nccs5)NC(=N)N)cc4)c(=O)nc3[nH]2)c1 [Compound 277] | < 16 µg/mL |
| C[C@H](N)CCCc1cc(OC(F)(F)F)c(F)c(-c2cc3cn(-c4ccc([C@H](C)NCC[C@@H](CCCN)NC(=N)N)cc4)c(=O)nc3[nH]2)c1 [Compound 283] | < 16 µg/mL |
| C[C@H](N)CCCc1cc(OC(F)(F)F)c(F)c(-c2cc3cn(-c4ccc([C@H](C)NCC[C@H](CCCN)NC(=N)N)cc4)c(=O)nc3[nH]2)c1 [Compound 284] | < 16 µg/mL |
| C[C@H](N)CCCc1cc(Cl)c(F)c(-c2cc3cn(-c4ccc([C@@H]5CC[C@@H](CCNC(=N)N)N5)cc4)c(=O)nc3[nH]2)c1 [Compound 285] | < 16 µg/mL |
| C[C@H](N)CCCc1cc(Cl)c(F)c(-c2[nH]c3nc(=O)n(-c4ccc([C@H](C)NCCCNC(=N)N)cc4)cc3c2Br)c1 [Compound 286] | < 16 µg/mL |
| C[C@H](N)CCCc1cc(Cl)c(F)c(-c2[nH]c3nc(=O)n(-c4ccc([C@H](C)NCCCNC(=N)N)cc4)cc3c2Cl)c1 [Compound 290] | < 16 µg/mL |
| C[C@H](N)CCCc1cc(OC(F)(F)F)c(F)c(-c2cc3cn(-c4ccc([C@H](C)NCC[C@H](Cn5ccnn5)NC(=N)N)cc4)c(=O)nc3[nH]2)c1 [Compound 294] | < 16 µg/mL |
| CC(=O)OC[C@H](N)CCCc1cc(Cl)c(F)c(-c2cc3cn(-c4ccc([C@H](C)NCCCNC(=N)N)cc4)c(=O)nc3[nH]2)c1 [Compound 295] | < 16 µg/mL |
| C[C@H](NCCCNC(=N)N)c1ccc(-n2cc3cc(-c4cc(CCC[C@@H]5COC(=O)N5)cc(Cl)c4F)[nH]c3nc2=O)cc1 [Compound 296] | > 16 µg/mL |
| C[C@H](N)CCCc1cc(-c2cn3cc(-c4ccc([C@H](C)NCCCNC(=N)N)cc4)c(=O)nc3[nH]2)cc(C(F)(F)F)c1 [Compound 298] | < 16 µg/mL |
| CCOC(=O)N[C@@H](C)CCCc1cc(-c2cn3cc(-c4ccc([C@H](C)NCCCNC(=N)N)cc4)c(=O)nc3[nH]2)cc(C(F)(F)F)c1 [Compound 299] | < 16 µg/mL |
| C[C@H](NCCCNC(=N)N)c1ccc(-n2cc3cc(-c4cc(CCC[C@@H](N)COC(=O)c5ccccc5)cc(Cl)c4F)[nH]c3nc2=O)cc1 [Compound 300] | < 16 µg/mL |
| C[C@H](N)CCCc1cc(Cl)c(F)c(-c2cn3cc(-c4ccc([C@H](C)NCCCNC(=N)N)cc4)c(=O)nc3[nH]2)c1 [Compound 302] | < 16 µg/mL |
| C[C@H](NCCCNC(=N)N)c1ccc(-n2cc3cc(-c4cc(CCC[C@@H](N)COC(=O)NCc5ccccc5)cc(Cl)c4F)[nH]c3nc2=O)cc1 [Compound 306] | < 16 µg/mL |
| C[C@H](NCCCNC(=N)N)c1ccc(-n2cc3cc(-c4cc(CCC[C@@H](N)COC(=O)Nc5ccccc5)cc(Cl)c4F)[nH]c3nc2=O)cc1 [Compound 307] | < 16 µg/mL |
| C[C@H](NCCCNC(=N)N)c1ccc(-n2cc3cc(-c4cc(CCC[C@@H](N)COC(=O)CCC(=O)O)cc(Cl)c4F)[nH]c3nc2=O)cc1 [Compound 308] | < 16 µg/mL |
| C[C@H](N)CC[C@@H](O)c1cc(Cl)c(F)c(-c2cc3cn(-c4ccc([C@H](C)NCCCNC(=N)N)cc4)c(=O)nc3[nH]2)c1 [Compound 310] | < 16 µg/mL |
| C[C@H](N)CCCc1cc(OC(F)(F)F)c(F)c(-c2cc3cn(-c4ccc(CNCC[C@H](CN)NC(=N)N)cc4)c(=O)nc3[nH]2)c1 [Compound 311] | < 16 µg/mL |

From patent US10815238B2, “Antimicrobial compounds and methods of making and using the same” (BIOVERSYS AG, priority 2013, dated 2020)
